# Source: patent US20120276064A1, “METHODS AND COMPOSITIONS FOR REJUVENATION AND EXPANSION OF STEM CELLS” (priority 2011, published 2012)
# System: MuSCs transplanted into tibialis anterior muscle
# Test: Transplantation of cultured MuSCs into irradiated NOD/SCID mice, engraftment by bioluminescence imaging
# Assay type: in vivo, mouse
# Settings: young MuSCs cultured one week on soft hydrogel with 10 μM; 100 cells transplanted; one month
# Description: MuSC transplantation. MuSCs were transplanted immediately following FACS isolation or after collection from cell culture directly into the tibialis anterior muscle of recipient mice as previously described. Cells from GFP/Luciferase or Myf5^nLacZl+/Luciferase mice were transplanted into gender-matched, hindlimb-irradiated NOD/SCID (Jackson) mice. NOD/SCID (2-4 months of age, median 2 months) mice were anesthetized with ketamine (2.4 mg per mouse) and xylazine (240 μg per mouse) by intraperitoneal injection then were irradiated by a single dose of 18 Gy administered to the hindlimbs, with the rest of the body shielded in a lead jig. Transplantation was performed within three days post-irradiation. In syngeneic transplant studies, cells from old C57BL/6 mice were transplanted into gender-matched, littermate old C57BL/6 mice (Jackson) following culture for one week on soft hydrogels. Specifically, old C57BL/6 MuSCs were infected with a GFP/Luciferase lentivirus added at day 2 of culture for 24 hours. Recipient old C57BL/6 mice were acutely injured by a single 10 μl intramuscular injection of notexin (10 μg/ml; Latoxan, France) two days prior to cell transplantation, but were not irradiated. Freshly isolated or cultured cells were counted by hemocytometer and resuspended at desired cell concentrations in PBS with 2.5% goat serum and 1 mM EDTA. Cells were collected from hydrogel cultures by incubation with 0.5% trypsin in PBS for 2 min at 37° C. and counted using a hemocytometer. Cells were transplanted by intramuscular injection into the tibialis anterior muscle in a 10 μl volume.
# Tissue histology. Recipient tibialis anterior muscle tissues were prepared for histology as previously described to analyze GFP expression. Transverse sections were incubated with anti-laminin (Millipore, Billerica, Calif.), anti-GFP (Invitrogen) antibodies, and/or anti-β-galactosidase (Abcam, Cambridge, Mass.) with appropriate secondary antibodies (Invitrogen). Nuclei were counter-stained with Hoechst 33342 (Invitrogen). Images were acquired with an AxioPlan2 epi-fluorescent microscope (Carl Zeiss Microimaging, Thornwood, N.Y.) with Plan NeoFluar 10×/0.30NA or 20×/0.75NA objectives (Carl Zeiss) and an ORCA-ER digital camera (Hamamatsu Photonics, Bridgewater, N.J.). Digital images were captured in OpenLab software (Improvision, Waltham, Mass.) and assembled in Photoshop software (Adobe, San Jose, Calif.) with consistent contrast adjustments across all images from the same stain.
# Bioluminescence imaging. Bioluminescence imaging was performed using a Xenogen-100 system, as previously described. Briefly, mice were anesthetized under isofluorane and 100 μL luciferin (0.1 mmol/kg; Caliper LifeSciences, Hopkinton, Mass.) in PBS was administered by intraperitoneal injection. Following luciferin administration, images were acquired every minute for 15 min. Images acquired at 12 min post-luciferin injection were used for analysis. Digital images were recorded and analyzed using Living Image software (Caliper LifeSciences). Images were analyzed with a consistent region-of-interest (ROI) placed over each hindlimb to calculate a bioluminescence signal. A bioluminescence signal value of 80,000 photons/s was used to define a engraftment threshold, as this level corresponds to the histological detection of one or more GFP^+ myofiber (see FIG. 8A). BLI imaging was performed one month post-transplant unless otherwise stated.
# MuSC culture and treatment. Following isolation, MuSCs were pelleted and resuspended into myogenic cell culture medium containing DMEM/F10 (50:50), 15% FBS, 2.5 ng/ml bFGF, and 1% penicillin/streptomycin. MuSCs were seeded at 1000 cells per well (24-well plate size wells, 2.0 cm^2 surface area) on laminin-tethered hydrogels of either 12 kPa (soft) or ˜10^6 kPa (rigid) rigidities. Cells were maintained at 37° C. in 5% CO2. Media was changed daily. […]
compound,measurement,value
C[S+]([O-])c1ccc(-c2nc(-c3ccncc3)c(-c3ccc(F)cc3)[nH]2)cc1 (stereo not shown) [SB203580],Transplant engraftment efficiency (in words),improves the transplant engraftment efficiency
